Measured values as given in EP1996603B1, “LIPID A ANTAGONISTS WITH ANTI-SEPTIC SHOCK, ANTI-INFLAMMATORY, ANTI-ISCHEMIA AND ANALGESIC ACTIVITY” (Università Degli Studi Di Milano - Bicocca, priority 2006, dated 2007).

Experiments:
BMΦ, BMDC and D1 cells = experiment: Lipid A-induced TNFα production in macrophages and dendritic cells (ELISA); format: cell-based, Mouse; settings: for direct inflammatory function (stimulating cytokines production): cells treated with compound alone, without lipid A
Method: BMΦ and DC were derived from bone marrow cells and divided in two separate cultures. For DC preparation bone marrow cells were cultured in complete IMDM supplemented with 10% supernatant of GM-CSF-transduced B16 tumor cells [R. Soiffer, T. Lynch, M. Mihm, K. Jung, C. Rhuda, J. C. Schmollinger, F. S. Hodi, L. Liebster, P. Lam, S. Mentzer, S. Singer, K. K. Tanabe, A. B. Cosimi, R. Duda, A. Sober, A. Bhan, J. Daley, D. Neuberg, G. Parry, J. Rokovich, L. Richards, J. Drayer, A. Berns, S. Clift, L. K. Cohen, R. C. Mulligan, G. Dranoff, Proc. Natl. Acad. Sci. U S A. 1998, 95(22), 13141-13146]. Fresh medium was added every 2 d. After 7-10 d of culture, cells were analyzed for CD11c expression and used in assays when 90% were CD11c positive. For BMΦ preparation bone marrow cells were cultured in complete IMDM supplemented with 10% supernatant of M-CSF-transduced NIH3T3 cells. Also in this case, fresh medium was added every 2 d. After 7-10 d of culture, cells were analyzed for Mac1 expression and used in assays when at least 90% were Mac1 positive. D1 cells were cultured in complete IMDM supplemented with 10% supernatant of GM-CSF-transduced B16 tumor cells.
D1 cells, BMDC and MΦ were plated in 48 well plates at a concentration of 200000 cells/well in 200µL of medium. One or two hours after plating they were treated with different amounts of compounds Ic and Id for 30 min and then stimulated with Lipid A from Escherichia coli (F583, Rd mutant Sigma, 0.5µM) for 18 h.
Given the pivotal role of early-activated DC and MΦ in directing inflammatory reactions, compounds Ia, Ic and Id were tested for their ability to antagonize the stimulatory activity of lipid A on bone marrow derived macrophages (BMΦ) and DC (BMDC) by interfering with their capacity to induce TNFα production. As source of DC, D1 cells, a long term growth factor (GM-CSF)-dependent DC line [C. Winzler et al. J. Exp. Med. 1997, 185, 317-327] were also used. BMΦ, BMDC and D1 cells were stimulated with lipid A (0.5 µM) after a pre-exposure to compounds Ia, Ic and Id and the amount of TNFα released in the supernatant was measured by ELISA.

Chemical stability = format: physicochemical; settings: N,O acetal group at C6 in Ia
Source text: Reagents and conditions: a) ADMA, CSA, DMF, 94%; b) C14H29Br, NaH, DMF, 74%; c) LiAlH4, AlCl3, CH2Cl2/Et2O, 86%; d) Dess- Martin periodinane, CH2Cl2; e) cyclopentylamine, NaBH3CN, AcOH, CH2Cl2, MeOH, 75% over two steps; f) TFA, CH2Cl2, 80%;g) CH3I, Na2CO3, DMF, 94%; h) O-methylhydroxylamine hydrochloride, pyridine, 65% from 6, i) NaBH3CN, glacial AcOH, 92%; l) TFA, CH2Cl2, 90%, m) DHF, PPTS, CH2Cl2, 65%; n) bromocyclopentane, DIPEA.

Compound | direct inflammatory function (stimulating cytokines production) (BMΦ, BMDC and D1 cells) | chemical stability (Chemical stability) | relative potency as inhibitor of lipid A (BMΦ, BMDC and D1 cells; comparison between compounds Ia, Ic and Id) | TNFα production (BMΦ, BMDC and D1 cells; stimulation with lipid A (0.5 µM) after pre-exposure to compound, TNFα released in the supernatant measured by ELISA, BMΦ, BMDC and D1 cells)
CCCCCCCCCCCCCCO[C@H]1[C@@H](OC)O[C@H](CN(OC)C2CCCO2)[C@@H](O)[C@@H]1OCCCCCCCCCCCCCC (stereo partly drawn) [Compound Ia, methyl 6-deoxy-6-[N-(1'-tetrahydrofuranyl)-N'-methoxyamino)-2,3-di-O-tetradecyl-α-D-glucopyranoside] | did not show any direct inflammatory function | chemically unstable | – | –
CCCCCCCCCCCCCCO[C@H]1[C@@H](OC)O[C@H](CN(OC)C2CCCC2)[C@@H](O)[C@@H]1OCCCCCCCCCCCCCC [Ib, methyl 6-deoxy-6-[N-(cyclopentyl)-N'-methoxyamino)-2,3-di-O-tetradecyl-α-D-glucopyranoside] | – | more stable than compound (Ia) | – | –
CCCCCCCCCCCCCCO[C@H]1[C@@H](OC)O[C@H](CNC2CCCC2)[C@@H](O)[C@@H]1OCCCCCCCCCCCCCC [Ic, methyl 6-deoxy-6-cyclopentylamino-2,3-di-O-tetradecyl-α-D-glucopyranoside] | did not show any direct inflammatory function | – | a better inhibitor than Ia | interfered with lipid A's action in a dose-dependent manner
